Results from paper PMC11364775, “Ion occupancy of the selectivity filter controls opening of a cytoplasmic gate in the K2P channel TALK-2” (Nature Communications, 2024).

Assays:
[1] = target: T1, WT TALK-2 channels (human K2P17.1) (Homo sapiens, UniProt Q96T54); test: Inside-out patch-clamp, ligand activation of channel currents at +40 mV (oocytes); settings: 5 µM; TALK-2 WT
T1 sequence (Q96T54 1-332): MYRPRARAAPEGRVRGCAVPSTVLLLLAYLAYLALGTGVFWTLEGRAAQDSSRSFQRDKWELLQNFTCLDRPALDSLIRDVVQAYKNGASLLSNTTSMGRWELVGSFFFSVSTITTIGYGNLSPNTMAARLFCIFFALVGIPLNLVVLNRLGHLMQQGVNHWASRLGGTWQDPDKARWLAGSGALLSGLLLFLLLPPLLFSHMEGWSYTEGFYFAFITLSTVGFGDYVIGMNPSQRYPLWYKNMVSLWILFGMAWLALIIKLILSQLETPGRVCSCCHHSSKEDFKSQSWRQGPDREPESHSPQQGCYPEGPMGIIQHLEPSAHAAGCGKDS
Description: Oocytes were surgically removed from anesthetized adult females, treated with type II collagenase (Sigma-Aldrich/Merck, Germany) and manually defolliculated. 50 nl of a solution containing the K^+ channel specific cRNA was injected into Dumont stage V - VI oocytes and subsequently incubated at 17 °C in a solution containing (mM): 54 NaCl, 30 KCl, 2.4 NaHCO3, 0.82 MgSO4 x 7 H2O, 0.41 CaCl2, 0.33 Ca(NO3)2 x 4 H2O and 7.5 TRIS (pH 7.4 adjusted with NaOH/HCl) for 1–7 days before use. Electrophysiological recordings: Excised patch measurements in inside-out configuration under voltage-clamp conditions were performed at room temperature (22 – 24 °C). […] Intracellular bath solutions and compounds were applied to the cytoplasmic side of excised patches for the various K^+ channels via a gravity flow multi-barrel pipette system. Intracellular solution had the following composition (in mM): 120 KCl, 10 HEPES, 2 EGTA and 1 Pyrophosphate (pH adjusted with KOH/HCl). In other intracellular bath solutions, K^+ was replaced by Rb^+ (pH 7.4 adjusted with RbOH/HCl). Currents were recorded with an EPC10 amplifier (HEKA electronics, Germany) and sampled at 10 kHz or higher and filtered with 3 kHz (-3 dB) or higher as appropriate for sampling rate.
Recorded currents were analyzed from stable membrane patches at a voltage defined in the respective figure legend or with a voltage protocol as indicated in the respective figure. The fold activation (fold change in (tail) current amplitude) of a ligand (drug or bioactive lipid) was calculated from Eq. 1:1 Fold activationFA=Iactivated/Ibasal where Iactivated represents the stable current level in the presence of a given concentration of a respective ligand and Ibasal the measured current before ligand application. Percentage inhibition or residual currents upon blocker application for a ligand (drug or bioactive lipid) was calculated from stable currents of excised membrane patches using the following Eqs. 2 and 3:2 %inhibition=1−Iinhibited/Ibasal*100 3 Residual current=100−%inhibition where Iinhibited refers to the stable current level recorded in the presence of a given concentration of a drug or bioactive lipid and Ibasal to the measured current before ligand application. The macroscopic half-maximal concentration-inhibition relationship of a ligand was obtained using a Hill-fit for dose-response curves as depicted in Eq. 4:4 %inhibition/activation=Ibase+Imax−Ibase/1+x1/2/x^rate where base and max are the currents in the absence and presence of a respective ligand, x is the concentration of the ligand, x1/2 is the ligand concentration at which the activatory or inhibitory effect is half-maximal, rate is the Hill coefficient.

WT TALK-2 channels = target: T2, WT TALK-2 channels (Homo sapiens, UniProt Q96T54); test: Conductance-voltage (G-V) curves from tail currents, V1/2 (intracellular Rb+); type: cell-based; set-up: expressed in transfected cells; host or cells: Xenopus laevis oocytes (cRNA injection), excised inside-out patches; settings: for Normalized current: TALK-2 WT + 5 µM Oleoyl-CoA
T2 sequence (Q96T54 1-332): T1 sequence (Q96T54 1-332)
Excerpt: The voltage-dependent activation mechanism of the SF gate in K2P channels allows to estimate the electrical work (ΔG = zFΔV1/2) required for pore opening by fitting the G–V curve to a Boltzmann equation. […] The open state represents the situation of both gates being simultaneously open but voltage can only exert force on the SF gate that functions as voltage sensor. […] We further tested whether mutations that open the lower gate (L262A and L264A) would affect the extracellular pH sensitivity. […] We further explored this concept of allosteric coupling using the mutations identified in the functional alanine screen of TM2 and TM4. […]
Conductance-voltage (G–V) relationships were determined from tail currents recorded at a holding potential (VH) of −80 mV after 300 ms depolarizing steps as indicated in the respective figure legend. Data were analyzed with a single Boltzmann fit following Eq. 6:6 GV=Imax/1+e^V−V1/2/slope+Ibase where V1/2 represents the voltage of half-maximal activation, s is the slope factor and Imax and Ibase represent the upper and lower asymptotes. Under appropriate experimental conditions, you can use slope to calculate the valence (charge) of the ion moving across the channel. Slope equals R * T/ z * F where R is the universal gas constant, T is temperature in K, F is the Faraday constant, and z is the valence.

Fold activation 5 µM oleoyl-CoA [1]: 19.13 fold
V1/2 shift (mV) (WT TALK-2 channels; 5 µM Oleoyl-CoA, shift of G-V curve): 26.7 mV
Normalized current (WT TALK-2 channels; Voltage 0.000): 0.186
Normalized current (WT TALK-2 channels; Voltage 0.005): 0.210
Normalized current (WT TALK-2 channels; Voltage 0.010): 0.238
Normalized current (WT TALK-2 channels; Voltage 0.015): 0.274
Normalized current (WT TALK-2 channels; Voltage 0.020): 0.318
Normalized current (WT TALK-2 channels; Voltage 0.025): 0.366
Normalized current (WT TALK-2 channels; Voltage 0.030): 0.416
Normalized current (WT TALK-2 channels; Voltage 0.035): 0.467
Normalized current (WT TALK-2 channels; Voltage 0.040): 0.514
Normalized current (WT TALK-2 channels; Voltage 0.045): 0.557
Normalized current (WT TALK-2 channels; Voltage 0.050): 0.597
Normalized current (WT TALK-2 channels; Voltage 0.055): 0.633
Normalized current (WT TALK-2 channels; Voltage 0.060): 0.668
Normalized current (WT TALK-2 channels; Voltage 0.065): 0.699
Normalized current (WT TALK-2 channels; Voltage 0.070): 0.727
Normalized current (WT TALK-2 channels; Voltage 0.075): 0.755
Normalized current (WT TALK-2 channels; Voltage 0.080): 0.778
Normalized current (WT TALK-2 channels; Voltage 0.085): 0.804
Normalized current (WT TALK-2 channels; Voltage 0.090): 0.822
Normalized current (WT TALK-2 channels; Voltage 0.095): 0.844
Normalized current (WT TALK-2 channels; Voltage 0.100): 0.861
Normalized current (WT TALK-2 channels; Voltage 0.105): 0.882
Normalized current (WT TALK-2 channels; Voltage 0.110): 0.895
Normalized current (WT TALK-2 channels; Voltage 0.115): 0.911
Normalized current (WT TALK-2 channels; Voltage 0.120): 0.926
Normalized current (WT TALK-2 channels; Voltage 0.125): 0.934
Normalized current (WT TALK-2 channels; Voltage 0.130): 0.943
Normalized current (WT TALK-2 channels; Voltage 0.135): 0.956
Normalized current (WT TALK-2 channels; Voltage 0.140): 0.963
Normalized current (WT TALK-2 channels; Voltage 0.145): 0.968
Normalized current (WT TALK-2 channels; Voltage 0.150): 0.977
Normalized current (WT TALK-2 channels; Voltage 0.155): 0.979
Normalized current (WT TALK-2 channels; Voltage 0.160): 0.985
Normalized current (WT TALK-2 channels; Voltage -0.005): 0.170
Normalized current (WT TALK-2 channels; Voltage -0.010): 0.157
Normalized current (WT TALK-2 channels; Voltage -0.015): 0.148
Normalized current (WT TALK-2 channels; Voltage -0.020): 0.137
Normalized current (WT TALK-2 channels; Voltage -0.025): 0.129
Normalized current (WT TALK-2 channels; Voltage -0.030): 0.123
Normalized current (WT TALK-2 channels; Voltage -0.035): 0.120
Normalized current (WT TALK-2 channels; Voltage -0.040): 0.115
Normalized current (WT TALK-2 channels; Voltage -0.045): 0.109
Normalized current (WT TALK-2 channels; Voltage -0.050): 0.104
Normalized current (WT TALK-2 channels; Voltage -0.055): 0.102
Normalized current (WT TALK-2 channels; Voltage -0.060): 0.097
Normalized current (WT TALK-2 channels; Voltage -0.065): 0.093
Normalized current (WT TALK-2 channels; Voltage -0.070): 0.092
Normalized current (WT TALK-2 channels; Voltage -0.075): 0.089
Normalized current (WT TALK-2 channels; Voltage -0.080): 0.088
Normalized current (WT TALK-2 channels; Voltage -0.085): 0.088
Normalized current (WT TALK-2 channels; Voltage -0.090): 0.087
Normalized current (WT TALK-2 channels; Voltage -0.095): 0.087
Normalized current (WT TALK-2 channels; Voltage -0.100): 0.087
Normalized current (WT TALK-2 channels; Voltage -0.105): 0.086
Normalized current (WT TALK-2 channels; Voltage -0.110): 0.086
Normalized current (WT TALK-2 channels; Voltage -0.115): 0.086
Normalized current (WT TALK-2 channels; Voltage -0.120): 0.086
V1/2 (WT TALK-2 channels; TALK-2 WT, 5 µM ligand): 44.9 mV
SMILES: CCCCCCCC/C=C\CCCCCCCC(=O)SCCNC(=O)CCNC(=O)[C@H](O)C(C)(C)COP(=O)(O)OP(=O)(O)OC[C@H]1O[C@@H](n2cnc3c(N)ncnc32)[C@H](O)[C@@H]1OP(=O)(O)O [oleoyl-CoA]
